Changes are numbered by the printed parent chain. “And” between values parts separate entries of the source, which are not always exact repeats. Equal entries are not always repeated.
Assays:
HilD^N44A [1] = target: T1, HilD^N44A (Salmonella typhimurium, UniProt P0CL08, N44A); experiment: EMSA of hilA promoter DNA with HilD N44A; type: biochemical; settings: 10 nM hilA promoter DNA, 30 μM fatty acid
T1 construct: made in house; host or cells: E. coli BL21 (DE3)
T1 sequence (P0CL08 1-309 N44A): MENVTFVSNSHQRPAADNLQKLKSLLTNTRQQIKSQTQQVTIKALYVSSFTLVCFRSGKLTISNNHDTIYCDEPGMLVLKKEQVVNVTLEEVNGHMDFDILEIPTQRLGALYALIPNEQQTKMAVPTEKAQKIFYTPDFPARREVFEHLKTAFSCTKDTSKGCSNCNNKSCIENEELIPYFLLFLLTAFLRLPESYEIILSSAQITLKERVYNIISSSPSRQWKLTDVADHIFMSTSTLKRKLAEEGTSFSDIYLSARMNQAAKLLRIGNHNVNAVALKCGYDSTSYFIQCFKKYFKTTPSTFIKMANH
Procedure: These were performed as previously described. Briefly, 10 nM hilA promoter DNA (-286 to +31) was mixed with 150 nM HilD in a binding buffer (100 mM Tris pH 7.5, 10 mM EDTA, 1M KCl, 1 mM DTT, 50% v/v glycerol). Fatty acids or control solvents were added at various concentrations. Binding reaction was performed at room temperature for 1 hour. Dye solution was added to final concentration of 1X and samples were separated on 10% acrylamide gels. DNA was stained using SYBR Safe and visualized in BioRad GelDoc imaging system.

HilD^N44A [2] = target: T1, HilD^N44A; experiment: ELISA binding of fatty acid to HilD N44A
Procedure: hilD or its mutated sequences were amplified and cloned into pET15b(+) under an N-terminal 6xHis tag. The constructs were transformed into E. coli BL21 (DE3) for expression. Transformants were induced with 5 mM IPTG for 4 hours. Cultures were centrifuged, lysed and treated with TALON beads as described above. Bound protein was eluted by applying 1 ml elution buffer to the columns. Elution was confirmed by SDS-PAGE. Following confirmation, eluted samples were dialyzed overnight in dialysis buffer (50 mM sodium phosphate, 300 mM NaCl, 10% glycerol). Protein concentration and quality were assessed by Bradford estimation and SDS-PAGE.
96-well polystyrene plates were coated with 10 μM fatty acid in coating buffer (0.05 M sodium carbonate-bicarbonate, pH 9.3) and incubated overnight at 4°C. Wells were washed three times with PBS, followed by addition of blocking buffer (1% Ficoll 400 in PBS). After blocking, wells were washed three times with PBS, and different concentrations of proteins in blocking buffer were added and incubated at room temperature for 2 hours. […] After color development, reaction was stopped with 1N sulfuric acid and read spectrophotometrically at 490 nm. Binding was analyzed in GraphPad Prism.
All experiments were repeated twice and data of representative experiment have been shown. Kd was calculated by using Total One-Site binding in GraphPad Prism. […]

sipB::lacZY = sipB::lacZY reporter β-galactosidase assay in strains expressing wild type or mutant HilD; type: cell-based; settings: 20 μM fatty acid (mix: 20 μM of each)
Excerpt: To test the effect of mutations in hilD, we initially constructed a background Salmonella strain without chromosomal hilC, rtsA and hilD and fused sipB to lacZY to assess SPI-1 expression. hilD with a C-terminal 3XFLAG tag was cloned into pWSK29 under control of the tetRA promoter for tetracycline-inducible expression. This plasmid was subjected to site-directed mutagenesis at specific nucleotides to change selected amino acids to alanine, using the Agilent QuikChange II Site-Directed Mutagenesis kit following their protocol. Mutations were confirmed by DNA sequencing.
Salmonella strains were inoculated into LB buffered with 100 mM MOPS [3-(N-morpholino) propanesulphonic acid] pH 6.7, with necessary antibiotics, and fatty acids or control solvents to be tested. Cultures were incubated at 37° C without aeration overnight, and assays were performed using an established protocol.

HilD [3] = target: T2, HilD (Salmonella typhimurium, UniProt P0CL08, K293A); experiment: HilD half-life (degradation) assay by western blot; type: cell-based; settings: HilD K293A-3XFLAG; 20 μM fatty acid
T2 construct: hilD with a C-terminal 3XFLAG tag was cloned into pWSK29 under control of the tetRA promoter; expressed in transfected cells; host or cells: Salmonella Typhimurium strain carrying pWSK29-PtetRA-hilD-3XFLAG (background with chromosomal hilD, hilC and rtsA null)
T2 sequence (P0CL08 1-309 K293A): T1 sequence (P0CL08 1-309 N44A) with A44N, K293A
Procedure: (§1) The HilD half-life was assessed as previously described. Salmonella strains having plasmids with tetracycline-inducible hilD or its mutated sequence with a C-terminal 3XFLAG tag and a sipB::lacZ fusion (for invasion gene expression assessment) were grown overnight and then diluted 1:100 into LB buffered with 100 mM MOPS (pH 6.7) with appropriate antibiotics and fatty acids or control solvents. After 2 hours of growth, aliquots were collected to quantitate sipB::lacZ expression in a β-galactosidase assay. Individual cultures were then equilibrated to an OD600 of 1.0 to ensure equal density at the half-life assay beginning point. New protein production was halted by addition of a cocktail of antibiotics (rifampin, streptomycin and spectinomycin). These cultures were incubated at 37°C and aliquots were collected every 30 minutes for 2 hours. Samples were lysed in 5X sample buffer, boiled, and immunoblotted with an anti-FLAG antibody to monitor HilD.

HilD [4] = target: T3, HilD (Salmonella typhimurium, UniProt P0CL08, N44A); experiment: HilD half-life (degradation) assay by western blot; type: cell-based; settings: HilD N44A-3XFLAG; 20 μM fatty acid
T3 construct: hilD with a C-terminal 3XFLAG tag was cloned into pWSK29 under control of the tetRA promoter; expressed in transfected cells; host or cells: Salmonella Typhimurium strain carrying pWSK29-PtetRA-hilD-3XFLAG (background with chromosomal hilD, hilC and rtsA null)
T3 sequence (P0CL08 1-309 N44A): T1 sequence (P0CL08 1-309 N44A)
Procedure: as §1

[5] = strain expressing wild type HilD

Row | Compound | effect on HilD binding to hilA promoter DNA (HilD^N44A [1]) | binding in ELISA (in words) (HilD^N44A [2]) | repression of sipB expression (sipB::lacZY; strain expressing HilD K43A) | repression of sipB expression (sipB::lacZY; strain expressing HilD K293A) | repression of sipB expression (sipB::lacZY; strain expressing HilD K294A) | repression of sipB expression (sipB::lacZY; strain expressing HilD Q290A) | repression of sipB expression (sipB::lacZY; [5]) | HilD degradation (HilD [3]) | HilD degradation (HilD [4])
1 | CCCCCCCCCCCCC/C=C\C(=O)O [c2-HDA, cis-2-hexadecenoic acid] | retained its binding of target DNA | essentially no binding | Repression by c2-HDA, however, remained unaffected | No significant repression | No significant repression | Repression by c2-HDA, however, remained unaffected | ~11 fold and 10.9 fold | protected from degradation | protected from degradation
2 | CCCCCCCCCCCCC/C=C/C(=O)O [t2-HDA, trans-2-hexadecenoic acid] | did not disrupt DNA binding | essentially no binding | – | – | – | – | 5.2 fold | rapidly degraded | escaped degradation
